How the values were obtained:
[1] = system: smooth muscle cell; experiment: smooth muscle proliferation stimulated by PDGF and IL-1; assay type: cell-based
Text: CT1501R and PTX were separately added to the cells two hours prior to activation with PDGF and IL-1.

[2] = system: lysophosphatidic acid acyl transferase (LPAAT); experiment: in vitro inhibition of LPAAT in 3T3 Ras-transformed fibroblasts stimulated with IL-1β; assay type: cell-based
Protocol: FIG. 17 illustrates a comparison of CT1501R, its S isomer CT1501S, and PTX on in vitro inhibition of lysophosphatidic acid acyl transferase (LPAAT), an enzyme involved in second messenger signaling. […] LPAAT activity was determined in 3T3 Ras-transformed fibroblasts stimulated with IL-1β.
One in vitro assay measures inhibition of the relevant enzymes lysophosphatidic acid acyltransferase (LPAAT) and phosphatidic acid phosphoryl hydrolase (PAPH). The assay involves incubating of target cells with a primary stimulus (e.g., a variety of cytokines, growth factors, oncogene products, putative therapeutic agents, irradiation, viral infection, toxins, bacterial infection and the products thereof, and any stimulus which, if not counteracted, has a deleterious effect on the target cell) in the presence or absence of an inventive compound at varying dosage levels. Target cells include, for example, subcellular entities, such as, microsomes derived from mesenchymal and/or ectodermal cells, particularly microsomes from marrow stromal cells or human or rat mesangial cells; microsomes or synaptosomes derived from brain; plasma membrane-enriched microsomes, plasma membranes derived as described in Bursten et at. (J. Biol. Chem. 226:20732-20743, 1991 ), or detergent-solubilized microsomes; synaptosomes, and membranes or other cell preparations solubilized using, for example, NP-40, Miranal, SDS or other neutral detergents; and detergent-solubilized, recombinant, or further purified preparations of cell proteins, including the proteins LPAAT and/or PAPH. After incubation for short periods of time, cell lipids are extracted and assayed by […] according to standard procedures. Briefly, lipids are extracted using, for example, chloroform:methanol 2:1 (v/v), and the extracts are then subjected to HPLC as described in Bursten and Harris, Biochemistry 30:6195-6203, 1991. A Rainin® mu-Porasil column is used with a 3:4 hexane:propanol organic carrier and a 1-10% water gradient during the first 10 minutes of separation. Detection of the peaks in the elution pattern is by absorption in the range of ultraviolet which detects isolated double bonds. The relevant peaks of unsaturated PA and DAG are shown in the elution pattern. It is important to note that the assay method permits discrimination between various forms of PA and DAG so that those relevant to the pathway affected by the (R) or (S) compounds of the invention can be measured directly. Confirmation of the nature of the acyl substituents of these components is accomplished using fast-atom bombardment mass spectroscopy. Thus, the relevant unsaturated (non-arachidonic) PA and DAG subspecies may be detected. The time periods employed are 5-60 seconds after stimulation with the primary stimulus, such as a cytokine. This technique permits assessment of the levels of various lipid components as a function of time.

[3] = system: TNF-α; experiment: mouse plasma TNF-α ELISA after endotoxin; assay type: in vivo; details: for Plasma TNF: LPS + CT-1501R
Protocol: For ELISA measurements of cytokine levels in plasma, blood was collected by retro-orbital or cardiac puncture of anesthetized mice, immediately centrifuged and the EDTA plasma stored at -70° C. Particulate free plasma was thawed on ice and cytokine levels determined utilizing commercial ELISA assays with normal mouse plasma used to generate standard curves. Murine tumor necrosis factor-α and interleukin-1αkits were purchased from Genzyme (Cambridge, Mass.) and Endogen (Boston, Mass.), respectively. Each data point was an average of two ELISA measurements made from EDTA […] pooled from three mice. The data summarized in Table 3 were compiled from two independent experiments; data from Table 4 and 5 were from single experiments of three mice per data point.
Levels of TNF-α, IL-1α and IL-6 were measured in the plasma of mice as a function of time following treatment with S. abortus endotoxin. […] TNF-α levels peaked within 1 hour of treatment of endotoxin (Table 4 and FIG. 6). Treatment of the mice with CT1501R decreased the levels of TNF-α in the EDTA plasma of endotoxin treated mice at all time points measured. In particular, peak levels of TNF-α at 0.5 and 1 hour post endotoxin were decreased 2.5 and 2.6 fold respectively in the CT1501R treated mice.

With `C[C@@H](O)CCCCn1c(=O)c2c(ncn2C)n(C)c1=O` [CT1501R, (R)-1-(5-hydroxyhexyl)-3,7-dimethylxanthine] the “activity compared with PTX, smooth muscle cell proliferation” value ([1]; PDGF and IL-1, FIG. 4) was “more active than PTX”, the “inhibition of smooth muscle cell proliferation” value ([1]; PDGF and IL-1, drug added two hours prior, FIG. 4) was “inhibited smooth muscle cell proliferation at the higher doses tested” and the “potency relative to the S enantiomer” value [2] was “many times more potent than the corresponding S enantiomer”. For the same compound, the “potency relative to the racemic mixture (M1)” value [2] was “two to three time more potent than the racemic mixture”, the “inhibition of LPAAT enzyme activity” value ([2]; 3T3 Ras-transformed fibroblasts, IL-1β, FIG. 17) was “significantly inhibited enzyme activity” and the “fold decrease of plasma TNF-α” value ([3]; 0.5 hour post endotoxin) was 2.5 fold. For the same compound, the “fold decrease of plasma TNF-α” value ([3]; 1 hour post endotoxin) was 2.6 fold, the “Plasma TNF” value ([3]; 0 hours post LPS) was 0 pg/mL and the “Plasma TNF” value ([3]; 0.17 hours post LPS) was 6 pg/mL. For the same compound, the “Plasma TNF” value ([3]; 0.5 hours post LPS) was 390 pg/mL, the “Plasma TNF” value ([3]; 1 hour post LPS) was 1728 pg/mL and the “Plasma TNF” value ([3]; 2 hours post LPS) was 940 pg/mL. The “Plasma TNF” value ([3]; 4 hours post LPS) was 400 pg/mL and the “Plasma TNF” value ([3]; 6 hours post LPS) was 350 pg/mL.
